Patent US20200216416A1, “QUINOLINE COMPOUNDS AS INHIBITORS OF TAM AND MET KINASES” (Array BioPharma Inc., priority 2019, published 2020)
pIC50: −log10 of the molar value.

Legend:
[1] = target: T1, His-tagged recombinant human AXL cytoplasmic domain (Homo sapiens, UniProt P30530); assay: AXL Enzyme Assay (LanthaScreen Eu Kinase Binding); conditions: averaged IC50; 60-minute incubation at 22° C.; TR-FRET
T1 construct: His-tagged recombinant human AXL cytoplasmic domain
T1 sequence (P30530 473-894 limits assumed): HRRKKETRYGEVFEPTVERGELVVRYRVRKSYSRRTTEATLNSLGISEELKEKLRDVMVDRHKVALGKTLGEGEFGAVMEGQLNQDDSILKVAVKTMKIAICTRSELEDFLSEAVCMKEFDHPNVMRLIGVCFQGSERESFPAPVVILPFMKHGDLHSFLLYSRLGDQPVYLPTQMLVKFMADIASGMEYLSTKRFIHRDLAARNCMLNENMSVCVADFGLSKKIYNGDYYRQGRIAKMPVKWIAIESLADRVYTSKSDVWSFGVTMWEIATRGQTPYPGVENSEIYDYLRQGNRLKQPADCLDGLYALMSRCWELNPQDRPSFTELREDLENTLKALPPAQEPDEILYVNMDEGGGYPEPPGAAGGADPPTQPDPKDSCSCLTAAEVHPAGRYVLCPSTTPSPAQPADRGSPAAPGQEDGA
Procedure: Compounds disclosed herein were screened for their ability to inhibit AXL kinase using Invitrogen's LanthaScreen™Eu Kinase Binding technology. His-tagged recombinant human AXL cytoplasmic domain was incubated with 20 nM Alexa-Fluor® Tracer 236 (PR9078A), 2 nM biotinylated anti-His (Cat. No. M4408), and 2 nM europium-labeled Streptavidin (Cat. No. PV5899) along with test compound in a buffer consisting of 25 mM HEPES, pH 7.4, 10 mM MgCl2, 0.01% Triton X-100, and 2% DMSO. Compounds were typically prepared in a threefold serial dilution in DMSO and added to the assay to give the appropriate final concentration. After a 60-minute incubation at 22° C., the reaction was measured using a PerkinElmer EnVision multimode plate reader via TR-FRET dual wavelength detection, and the percent of control (POC) was calculated using a ratiometric emission factor. […] The POC values are fit to a 4 parameter logistic curve and the IC50 value is point where the curve crosses 50 POC.

[2] = target: T2, GST-tagged recombinant human TYRO3 kinase domain (Homo sapiens, UniProt Q06418); assay: TYRO3 Enzyme Assay (LanthaScreen Eu Kinase Binding); conditions: averaged IC50; TYRO3 5 nM; 60-minute incubation at 22° C.; TR-FRET
T2 construct: GST-tagged recombinant human TYRO3 kinase domain; purchased Carna PR7480A
T2 sequence (Q06418 518-790 limits assumed): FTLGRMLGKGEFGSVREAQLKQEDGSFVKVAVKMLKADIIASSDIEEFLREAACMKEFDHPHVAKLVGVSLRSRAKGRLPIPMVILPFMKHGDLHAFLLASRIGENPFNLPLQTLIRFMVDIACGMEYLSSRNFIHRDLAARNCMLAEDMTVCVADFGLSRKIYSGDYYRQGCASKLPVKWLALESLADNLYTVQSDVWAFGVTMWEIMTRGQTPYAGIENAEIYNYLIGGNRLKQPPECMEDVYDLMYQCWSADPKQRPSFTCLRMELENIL
Procedure: Compounds disclosed herein were screened for their ability to inhibit TYRO3 kinase using Invitrogen's LanthaScreenTM Eu Kinase Binding technology. GST-tagged recombinant human TYRO3 kinase domain from Carna (5 nM; Cat. No. P[…]) was incubated with 20 nM Alexa-Fluor® Tracer 236 (P[…]) and 2 nM Europium-anti-GST (Cat. No. A15116) along with test compound in a buffer consisting of 25 mM HEPES, pH 7.4, 10 mM MgCl2, 0.01% Triton X-100, and 2% DMSO. Compounds are typically prepared in a threefold serial dilution in DMSO and added to the assay to give the appropriate final concentration. After a 60-minute incubation at 22° C., the reaction was measured using a PerkinElmer EnVision multimode plate reader via TR-FRET dual wavelength detection, and the percent of control (POC) calculated using a ratiometric emission factor. […] The POC values were fit to a 4 parameter logistic curve and the IC50 value is point where the curve crosses 50 POC.

human MET kinase Y1230S = target: T3, human MET kinase Y1230S (Homo sapiens, UniProt P08581, Y1230S); assay: c-Met Enzyme Assay, Y1230S mutant; assay type: binding; conditions: averaged IC50; Y1230S 8 nM; 60-minute incubation at 22° C.; read-out: Y1230 S IC50
T3 construct: GST-tagged recombinant human MET kinase domain; purchased Signal Chem
T3 sequence (P08581 1078-1345 Y1230S): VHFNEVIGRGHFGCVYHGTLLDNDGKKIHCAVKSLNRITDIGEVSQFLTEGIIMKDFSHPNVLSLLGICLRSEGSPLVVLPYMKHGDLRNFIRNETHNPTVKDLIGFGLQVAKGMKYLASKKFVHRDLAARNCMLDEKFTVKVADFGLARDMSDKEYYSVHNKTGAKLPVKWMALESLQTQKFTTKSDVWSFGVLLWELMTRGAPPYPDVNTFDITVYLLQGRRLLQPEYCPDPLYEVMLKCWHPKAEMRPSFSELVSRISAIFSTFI
Procedure: The affinity of compound binding to wild type and mutant human MET kinases was measured using Invitrogen's LanthaScreen™ Eu Kinase Binding technology. Briefly, GST-tagged recombinant human MET kinase domain from Signal Chem (see Table 8 below for concentration in assay) was incubated with 50 nM Alexa-Fluor® Tracer 236 (Invitrogen Cat No. PR9078A) and 2 nM Europium-anti-GST (Invitrogen Cat. No. A15116) along with test compound in a buffer consisting of 25 mM HEPES, pH 7.4, 10 mM MgCl2, 0.01% Triton X-100, 1mM DTT, and 2% DMSO. Compounds were typically prepared in a three-fold serial dilution in DMSO and added to the assay to give the appropriate final concentration. After a 60-minute incubation at 22° C., the reaction was measured using a PerkinElmer EnVision multimode plate reader via TR-FRET dual wavelength detection, and the percent of control (POC) calculated using a ratiometric emission factor. […] The POC values were fit to a 4 parameter logistic curve and the IC50 value is point where the curve crosses 50 POC.

| pIC50 [1] | pIC50 [2] | pIC50 (human MET kinase Y1230S) | SMILES |
| --- | --- | --- | --- |
| 9.00 | 8.30 | 8.89 | COc1cc2nccc(Oc3ccc(NC(=O)c4cn(C(C)C)cc(-c5ccc(F)cc5)c4=O)nc3)c2cc1OC [Example 1] |
| 9.00 | 8.22 | 8.01 | COc1cc2nccc(Oc3ccc(NC(=O)c4cn(C)cc(-c5ccc(F)cc5)c4=O)nc3)c2cc1OC [Example 2] |
| 9.00 | 8.30 | 8.33 | CCn1cc(C(=O)Nc2ccc(Oc3ccnc4cc(OC)c(OC)cc34)cn2)c(=O)c(-c2ccc(F)cc2)c1 [Example 3] |
| 9.00 | 8.30 | 8.66 | COc1cc2nccc(Oc3ccc(NC(=O)c4cn(C(C)C)cc(-c5ccc(F)cc5F)c4=O)nc3)c2cc1OC [Example 4] |
| 8.70 | 7.92 | 8.27 | COc1cc2nccc(Oc3ccc(NC(=O)c4cn(C(C)C)cc(-c5ccc(Cl)cc5)c4=O)nc3)c2cc1OC [Example 5, 5-(4-chlorophenyl)-N-(5-((6,7-dimethoxyquinolin-4-yl)oxy)pyridin-2-yl)-1-isopropyl-4-oxo-1,4-dihydropyridine-3-carboxamide] |
| 8.70 | 7.96 | 7.92 | COc1cc2nccc(Oc3ccc(NC(=O)c4cn(C(C)C)cc(-c5ccc(F)c(F)c5)c4=O)nc3)c2cc1OC [Example 6] |
| 8.70 | 8.15 | 8.68 | COCCn1cc(C(=O)Nc2ccc(Oc3ccnc4cc(OC)c(OC)cc34)cn2)c(=O)c(-c2ccc(F)cc2)c1 [Example 7, N-(5((6,7-dimethoxyquinolin-4-yl)oxy)pyridin-2-yl)-5-(4-fluorophenyl)-1-(2-methoxyethyl)-4-oxo-1,4-dihydropyridine-3-carboxamide] |
| 8.70 | 7.82 | 8.37 | COc1cc2nccc(Oc3ccc(NC(=O)c4cn(CC5CCOCC5)cc(-c5ccc(F)cc5)c4=O)nc3)c2cc1OC [Example 8, N-(5-((6,7-dimethoxyquinolin-4-yl)oxy)pyridin-2-yl)-5-(4-fluorophenyl)-4-oxo-1-((tetrahydro-2H-pyran-4-yl)methyl)-1,4-dihydropyridine-3-carboxamide] |
| 8.70 | 7.89 | 8.04 | COc1cc2nccc(Oc3ccc(NC(=O)c4cn(CC(C)(C)O)cc(-c5ccc(F)cc5)c4=O)nc3)c2cc1OC [Example 9, N-(5-((6,7-dimethoxyquinolin-4-yl)oxy)pyridin-2-yl)-5-(4-fluorophenyl)-1-(2-hydroxy-2-methylpropyl)-4-oxo-1,4-dihydropyridine-3-carboxamide] |
| 8.40 | 7.82 | 8.55 | CCCn1cc(C(=O)Nc2ccc(Oc3ccnc4cc(OC)c(OC)cc34)cn2)c(=O)c(-c2ccc(F)cc2)c1 [Example 10, N-(5((6,7-dimethoxyquinolin-4-yl)oxy)pyridin-2-yl)-5-(4-fluorophenyl)-4-oxo-1-propyl-1,4-dihydropyridine-3-carboxamide] |
| 8.30 | 7.48 | 8.31 | COc1cc2nccc(Oc3ccc(NC(=O)c4cn(CC(C)C)cc(-c5ccc(F)cc5)c4=O)nc3)c2cc1OC [Example 11, N-(5-((6,7-dimethoxyquinolin-4-yl)oxy)pyridin-2-yl)-5-(4-fluorophenyl)-1-isobutyl-4-oxo-1,4-dihydropyridine-3-carboxamide] |
| 8.70 | 7.64 | 8.34 | COc1cc2nccc(Oc3ccc(NC(=O)c4cn(C5CCOCC5)cc(-c5ccc(F)cc5)c4=O)nc3)c2cc1OC [Example 12, N-(5((6,7-dimethoxyquinolin-4-yl)oxy)pyridin-2-yl)-5-(4-fluorophenyl)-4-oxo-1-(tetrahydro-2H-pyran-4-yl)-1,4-dihydropyridine-3-carboxamide] |
| 8.70 | 7.66 | 8.22 | COc1cc2nccc(Oc3ccc(NC(=O)c4cn(CC(=O)N(C)C)cc(-c5ccc(F)cc5F)c4=O)nc3)c2cc1OC [Example 13, 5-(2,4-difluorophenyl)-N-(5((6,7-dimethoxyquinolin-4-yl)oxy)pyridin-2-yl)-1-(2-(dimethylamino)-2-oxoethyl)-4-oxo-1,4-dihydropyridine-3-carboxamide] |
| 8.70 | 6.89 | 7.79 | COc1cc2nccc(Oc3ccc(NC(=O)c4cn(CC(=O)N5CCCC5)cc(-c5ccc(F)cc5F)c4=O)nc3)c2cc1OC [Example 14] |
| 8.70 | 6.53 | 7.27 | COc1cc2nccc(Oc3ccc(NC(=O)c4cn(CC(=O)N5CCOCC5)cc(-c5ccc(F)cc5F)c4=O)nc3)c2cc1OC [Example 15, 5-(2,4-difluorophenyl)-N-(5-((6,7-dimethoxyquinolin-4-yl)oxy)pyridin-2-yl)-1-(2-morpholino-2-oxoethyl)-4-oxo-1,4-dihydropyridine-3-carboxamide] |
| 8.40 | 7.96 | 8.22 | CCC(CC)n1cc(C(=O)Nc2ccc(Oc3ccnc4cc(OC)c(OC)cc34)cn2)c(=O)c(-c2ccc(F)cc2F)c1 [Example 16, 5-(2,4-difluorophenyl)-N-(5-((6,7-dimethoxyquinolin-4yl)oxy)pyridin-2-yl)-4-oxo-1-(pentan-3-yl)-1,4-dihydropyridine-3-carboxamide] |
| 7.55 | 7.12 | 7.94 | CCCC(CCC)n1cc(C(=O)Nc2ccc(Oc3ccnc4cc(OC)c(OC)cc34)cn2)c(=O)c(-c2ccc(F)cc2F)c1 [Example 17, 5-(2,4-difluorophenyl)-N-(5-((6,7-dimethoxyquinolin-4yl)oxy)pyridin-2-yl)-1-(heptan-4-yl)-4-oxo-1,4-dihydropyridine-3-carboxamide] |
| 8.70 | 8.40 | 8.57 | COc1cc2nccc(Oc3ccc(NC(=O)c4cn(C(C)C)cc(-c5ccc(F)cc5Cl)c4=O)nc3)c2cc1OC [Example 18, 5-(2-chloro-4-fluorophenyl)-N-(5-((6,7-dimethoxyquinolin-4-yl)oxy)pyridin-2-yl)-1-isopropyl-4-oxo-1,4-dihydropyridine-3-carboxamide] |
| 8.52 | 7.74 | – | COc1cc2nccc(Oc3ccc(NC(=O)c4cn(C(C)C)c(C(C)C)c(-c5ccc(F)cc5)c4=O)nc3)c2cc1OC [Example 38, N-(5-((6,7-dimethoxyquinolin-4yl)oxy)pyridin-2-yl)-5-(4-fluorophenyl)-1,6-diisopropyl-4-oxo-1,4-dihydropyridine-3-carboxamide] |
